Data from patent publication US20250049836A1, “PRODRUGS OF DEOXYNUCLEOSIDES FOR TREATMENT OF MITOCHONDRIAL DISEASES CAUSED BY UNBALANCED NUCLEOTIDE POOLS” (UCB Biosciences, Inc., priority 2021, published 2025).

Assays:
MPV17^−/− mice = experiment: qPCR measurements of mtDNA copy number in the liver of MPV17−/− mice; assay type: in vivo, mouse; details: treatment alone; summary statement
Experimental: • 2A. 2 litters from MPV17^−/− mouse (KO×KO) breeding pairs were used in the study. The experimental groups were set up as follows: • 1. - - - KO untreated (n=1) • 2. - - - KO treated with 109.35 mg/kg MT102C+104.2 mg/kg MT102G (n=3) • 3. - - - KO treated with 163.87 mg/kg MT103C+150.56 mg/kg MT103G (n=3) • 4. - - - KO treated with 75 mg/kg dC and 75 mg/kg dG (purchased from Sigma) (n=3) • 5. - - - KO treated with 144.9 mg/kg MT101G (n=2)
Treatment was started at day 7 and terminated at day 30. The treatment was performed by delivery into the oral cavity throughout the study. […] At day 30, animals were sacrificed and tissues collected. Liver, muscle, kidney, gut, heart and brain were flash frozen in liquid nitrogen. Blood was collected by heart puncture and plasma fractions stored at −80° C.
Results of qPCR measurements of mtDNA copy number in the liver tissue of treated and untreated mice are shown FIG. 7. • 2B. In order to compare results, WT (n=5), KO untreated (n=4) and KO treated with 20% MT101 (n=4) and 20% MT104 (n=4) from previous experiments were also included in the analysis. • 2C. Three other litters from KO x KO breeding pairs were used in a further study of nucleoside prodrug supplementation: • 1.—Litter 2 (L2): Born on Feb. 9, 2020 • 2.—Litter 3 (L3): Born on May 9, 2020 • 3.—Litter 4 (L4): Born on Aug. 9, 2020 […]
mtDNA copy number in liver was analyzed by RT-qPCR. […]

[1] = test system: fibroblasts from patients with DGUOK mutations; details: cited from earlier work
dGK mutant fish = details: nucleoside supplementation (Munro, et al. 2019); cited from earlier work

Nc1nc2c(ncn2[C@H]2C[C@H](O)[C@@H](CO)O2)c(=O)[nH]1 [dG, 2′-deoxyguanosine]
mtDNA copy numbers in dGK or MPV17 deficiency disorders (MPV17^−/− mice): sufficient to increase mtDNA copy numbers
mtDNA depletion after quiescence, previously demonstrated ([1]; 50 μM in cell culture medium): sufficient to prevent this depletion
mtDNA copy number ([1]; 50 μm added into culture broth (Camara, et al. 2014)): sufficient to increase the mtDNA copy number
mtDNA levels in dGK mutant fish (dGK mutant fish): decreased mtDNA levels
